Consider one molecule from ChEMBL document CHEMBL2073893, “BBB transport and P-glycoprotein functionality using MDR1A (-/-) and wild-type mice. Total brain versus microdialysis concentration profiles of rhodamine-123” (Pharm Res, 1998).

The data set concerns the target ATP-dependent translocase ABCB1 (Mus musculus, UniProt P21447). Put plainly: TP_TRANSPORTER: increase in brain concentration in mdr1a(-/-) mouse. Conditions: in vivo. The format is functional, organism-based.

Chain of ATP-dependent translocase ABCB1 (P21447 whole entry): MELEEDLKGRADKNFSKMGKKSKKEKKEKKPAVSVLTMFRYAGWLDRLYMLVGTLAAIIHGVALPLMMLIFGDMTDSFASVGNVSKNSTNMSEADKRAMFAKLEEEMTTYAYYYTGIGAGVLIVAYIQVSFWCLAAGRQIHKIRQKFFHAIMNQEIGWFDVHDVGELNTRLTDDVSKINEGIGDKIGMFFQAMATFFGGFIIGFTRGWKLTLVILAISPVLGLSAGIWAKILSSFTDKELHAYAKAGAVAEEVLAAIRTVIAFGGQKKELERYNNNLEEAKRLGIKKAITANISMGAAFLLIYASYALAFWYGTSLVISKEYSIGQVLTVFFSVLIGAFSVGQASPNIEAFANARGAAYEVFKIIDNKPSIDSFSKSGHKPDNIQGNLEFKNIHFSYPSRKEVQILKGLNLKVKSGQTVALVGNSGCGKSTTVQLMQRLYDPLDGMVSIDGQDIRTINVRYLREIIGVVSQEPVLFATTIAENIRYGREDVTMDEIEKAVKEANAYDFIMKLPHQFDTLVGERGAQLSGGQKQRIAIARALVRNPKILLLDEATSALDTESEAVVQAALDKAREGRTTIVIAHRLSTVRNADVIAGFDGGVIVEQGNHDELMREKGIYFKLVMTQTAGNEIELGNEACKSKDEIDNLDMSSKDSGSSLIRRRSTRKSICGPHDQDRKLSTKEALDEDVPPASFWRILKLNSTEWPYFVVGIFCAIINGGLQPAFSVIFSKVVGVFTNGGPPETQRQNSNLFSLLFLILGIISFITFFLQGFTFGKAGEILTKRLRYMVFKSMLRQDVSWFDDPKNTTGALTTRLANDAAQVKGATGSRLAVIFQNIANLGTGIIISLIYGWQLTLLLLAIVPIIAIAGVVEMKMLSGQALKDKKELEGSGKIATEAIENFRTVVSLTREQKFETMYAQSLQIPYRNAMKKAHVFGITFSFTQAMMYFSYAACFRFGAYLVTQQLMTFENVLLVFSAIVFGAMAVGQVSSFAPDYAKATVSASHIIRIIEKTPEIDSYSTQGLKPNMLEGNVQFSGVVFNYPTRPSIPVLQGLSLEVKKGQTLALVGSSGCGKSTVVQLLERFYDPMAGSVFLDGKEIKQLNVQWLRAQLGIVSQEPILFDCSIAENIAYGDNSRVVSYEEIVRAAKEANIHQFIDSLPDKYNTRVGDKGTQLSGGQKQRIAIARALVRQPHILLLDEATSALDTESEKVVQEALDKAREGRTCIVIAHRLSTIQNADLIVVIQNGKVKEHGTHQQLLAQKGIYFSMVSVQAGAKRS

Turning to `COC(=O)c1ccccc1-c1c2ccc(=N)cc-2oc2cc(N)ccc12.Cl` [RHODAMINE123], the Activity entry was “substrate [+]”.
